Test results published in PubChem BioAssay AID2060327 (Molecular Pharmacology Branch, DTP, NCI, 2025).
“And” between values parts separate entries of the source, which are not always exact repeats. Equal entries are not always repeated.

Tested on: PC-3 multi-cell spheroids, viability
Experiment: Anticancer human tumor PC-3 cell line growth inhibition [IpAb];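 also: spheroids exposed to compounds for 7 days before readout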;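 as to viability, T/C: 100% = DMSO vehicle control wells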
Settings: for viability, T/C: stronger effect = lower value
Summary of the method: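 Multi-cell spheroids of 60% tumour cells, 25% HUVEC and 15% MSC in ultra-low-attachment U-bottom wells, treated with agents combined with ipatasertib or abemaciclib. Half-log ranges top out near clinical Cmax, or 10 microM when Cmax is unknown.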

[1] = curve of first compound, second compound 0.1 µM
[2] = curve of first compound, second compound 0.316 µM
[3] = curve of first compound, second compound 1 µM
[4] = curve of first compound, second compound 3.16 µM
[5] = curve of first compound, second compound 10 µM
[6] = second compound 0.1 µM, first compound 0.00949 µM
[7] = second compound 0.1 µM, first compound 0.03 µM
[8] = second compound 0.1 µM, first compound 0.0949 µM
[9] = second compound 0.1 µM, first compound 0.3 µM
[10] = second compound 0.316 µM, first compound 0.00949 µM
[11] = second compound 0.316 µM, first compound 0.03 µM
[12] = second compound 0.316 µM, first compound 0.0949 µM
[13] = second compound 0.316 µM, first compound 0.3 µM
[14] = second compound 1 µM, first compound 0.00949 µM
[15] = second compound 1 µM, first compound 0.03 µM
[16] = second compound 1 µM, first compound 0.0949 µM
[17] = second compound 1 µM, first compound 0.3 µM
[18] = second compound 3.16 µM, first compound 0.00949 µM
[19] = second compound 3.16 µM, first compound 0.03 µM
[20] = second compound 3.16 µM, first compound 0.0949 µM
[21] = second compound 3.16 µM, first compound 0.3 µM
[22] = second compound 10 µM, first compound 0.00949 µM
[23] = second compound 10 µM, first compound 0.03 µM
[24] = second compound 10 µM, first compound 0.0949 µM
[25] = second compound 10 µM, first compound 0.3 µM
[26] = second compound 0.1 µM, first compound 0.949 µM
[27] = second compound 0.1 µM, first compound 3 µM
[28] = second compound 0.316 µM, first compound 0.949 µM
[29] = second compound 0.316 µM, first compound 3 µM
[30] = second compound 1 µM, first compound 0.949 µM
[31] = second compound 1 µM, first compound 3 µM
[32] = second compound 3.16 µM, first compound 0.949 µM
[33] = second compound 3.16 µM, first compound 3 µM
[34] = second compound 10 µM, first compound 0.949 µM
[35] = second compound 10 µM, first compound 3 µM

CC(C)n1nc(-c2ccc3oc(N)nc3c2)c2c(N)ncnc21 + CCN1CCN(Cc2ccc(Nc3ncc(F)c(-c4cc(F)c5nc(C)n(C(C)C)c5c4)n3)nc2)CC1
IC50 (curve of first compound, second compound 0.01 µM): 1.99 nM
IC50 (curve of first compound, second compound 0.0316 µM): 2.07 nM
IC50 [1]: 1.93 nM
IC50 [2]: 1.81 nM
IC50 [3]: 1.14 nM
viability, T/C (second compound 0.01 µM, first compound 0.000316 µM): 81.9%
viability, T/C (second compound 0.01 µM, first compound 0.001 µM): 56.2%
viability, T/C (second compound 0.01 µM, first compound 0.00316 µM): 48.6%
viability, T/C (second compound 0.01 µM, first compound 0.01 µM): 25.9%
viability, T/C (second compound 0.01 µM, first compound 0.0316 µM): 11%
viability, T/C (second compound 0.01 µM, first compound 0.1 µM): 10%
viability, T/C (second compound 0.0316 µM, first compound 0.000316 µM): 55.2%
viability, T/C (second compound 0.0316 µM, first compound 0.001 µM): 55.7%
viability, T/C (second compound 0.0316 µM, first compound 0.00316 µM): 47%
viability, T/C (second compound 0.0316 µM, first compound 0.01 µM): 18.6%
viability, T/C (second compound 0.0316 µM, first compound 0.0316 µM): 11.7%
viability, T/C (second compound 0.0316 µM, first compound 0.1 µM): 9.52%
viability, T/C (second compound 0.1 µM, first compound 0.000316 µM): 59.1%
viability, T/C (second compound 0.1 µM, first compound 0.001 µM): 54.8%
viability, T/C (second compound 0.1 µM, first compound 0.00316 µM): 45.7%
viability, T/C (second compound 0.1 µM, first compound 0.01 µM): 20%
viability, T/C (second compound 0.1 µM, first compound 0.0316 µM): 11.2%
viability, T/C (second compound 0.1 µM, first compound 0.1 µM): 9.73%
viability, T/C (second compound 0.316 µM, first compound 0.000316 µM): 65.3%
viability, T/C (second compound 0.316 µM, first compound 0.001 µM): 61.8%
viability, T/C (second compound 0.316 µM, first compound 0.00316 µM): 39.2%
viability, T/C (second compound 0.316 µM, first compound 0.01 µM): 20.1%
viability, T/C (second compound 0.316 µM, first compound 0.0316 µM): 13.7%
viability, T/C (second compound 0.316 µM, first compound 0.1 µM): 10.8%
viability, T/C (second compound 1 µM, first compound 0.000316 µM): 55.4%
viability, T/C (second compound 1 µM, first compound 0.001 µM): 54.3%
viability, T/C (second compound 1 µM, first compound 0.00316 µM): 35.3%
viability, T/C (second compound 1 µM, first compound 0.01 µM): 24.1%
viability, T/C (second compound 1 µM, first compound 0.0316 µM): 15.7%
viability, T/C (second compound 1 µM, first compound 0.1 µM): 13.8%

CC(=O)c1c(C)c2cnc(Nc3ccc(N4CCNCC4)cn3)nc2n(C2CCCC2)c1=O + CC(C)NCC(C(=O)N1CCN(c2ncnc3c2C(C)CC3O)CC1)c1ccc(Cl)cc1
IC50 [1]: > 300 nM
IC50 [2]: < 0.949 nM
IC50 [3]: < 0.949 nM
IC50 [4]: < 0.949 nM
IC50 [5]: < 0.949 nM
viability, T/C (second compound 0.1 µM, first compound 0.000949 µM): 74.1%
viability, T/C (second compound 0.1 µM, first compound 0.003 µM): 63.7%
viability, T/C [6]: 51%
viability, T/C [7]: 51.6%
viability, T/C [8]: 52.9%
viability, T/C [9]: 48.2%
viability, T/C (second compound 0.316 µM, first compound 0.000949 µM): 44.5%
viability, T/C (second compound 0.316 µM, first compound 0.003 µM): 43.3%
viability, T/C [10]: 43.8%
viability, T/C [11]: 40.1%
viability, T/C [12]: 33.8%
viability, T/C [13]: 30.7%
viability, T/C (second compound 1 µM, first compound 0.000949 µM): 26.3%
viability, T/C (second compound 1 µM, first compound 0.003 µM): 23.8%
viability, T/C [14]: 19.6%
viability, T/C [15]: 17.2%
viability, T/C [16]: 15.8%
viability, T/C [17]: 14.8%
viability, T/C (second compound 3.16 µM, first compound 0.000949 µM): 15.3%
viability, T/C (second compound 3.16 µM, first compound 0.003 µM): 14.2%
viability, T/C [18]: 14.2%
viability, T/C [19]: 13.3%
viability, T/C [20]: 11.3%
viability, T/C [21]: 10.7%
viability, T/C (second compound 10 µM, first compound 0.000949 µM): 13.5%
viability, T/C (second compound 10 µM, first compound 0.003 µM): 12.9%
viability, T/C [22]: 12.5%
viability, T/C [23]: 11.6%
viability, T/C [24]: 11.5%
viability, T/C [25]: 10.8%

Cn1cnc2c(F)c(Nc3ccc(Br)cc3Cl)c(C(=O)NOCCO)cc21 + CC(C)NCC(C(=O)N1CCN(c2ncnc3c2C(C)CC3O)CC1)c1ccc(Cl)cc1
IC50 [1]: > 3000 nM
IC50 [2]: < 9.49 nM
IC50 [3]: < 9.49 nM
IC50 [4]: < 9.49 nM
IC50 [5]: < 9.49 nM
viability, T/C [6]: 83.2%
viability, T/C [7]: 73.6%
viability, T/C [8]: 88.3%
viability, T/C [9]: 78.9%
viability, T/C [26]: 70%
viability, T/C [27]: 55.6%
viability, T/C [10]: 46.5%
viability, T/C [11]: 45%
viability, T/C [12]: 47.3%
viability, T/C [13]: 44.5%
viability, T/C [28]: 45%
viability, T/C [29]: 37.1%
viability, T/C [14]: 25.6%
viability, T/C [15]: 27.1%
viability, T/C [16]: 24.1%
viability, T/C [17]: 20.8%
viability, T/C [30]: 19.9%
viability, T/C [31]: 17.6%
viability, T/C [18]: 8.45%
viability, T/C [19]: 6.53%
viability, T/C [20]: 7.72%
viability, T/C [21]: 7.02%
viability, T/C [32]: 8%
viability, T/C [33]: 6.09%
viability, T/C [22]: 12.9%
viability, T/C [23]: 12.2%
viability, T/C [24]: 11.5%
viability, T/C [25]: 12.1%
viability, T/C [34]: 11.4%
viability, T/C [35]: 10.7%

CCN1CCN(Cc2ccc(Nc3ncc(F)c(-c4cc(F)c5nc(C)n(C(C)C)c5c4)n3)nc2)CC1
IC50 (compound alone, run of 44348): > 1000 nM and 502 nM

CC(C)(C)c1cnc(CSc2cnc(NC(=O)C3CCNCC3)s2)o1 + CC(C)NCC(C(=O)N1CCN(c2ncnc3c2C(C)CC3O)CC1)c1ccc(Cl)cc1
IC50 [1]: 165 nM
IC50 [2]: 103 nM
IC50 [3]: < 9.49 nM
IC50 [4]: < 9.49 nM
IC50 [5]: < 9.49 nM
viability, T/C [6]: 80.2%
viability, T/C [7]: 98.4%
viability, T/C [8]: 95.3%
viability, T/C [9]: 4.14%
viability, T/C [26]: 6.3%
viability, T/C [27]: 6.84%
viability, T/C [10]: 49.9%
viability, T/C [11]: 46.9%
viability, T/C [12]: 64%
viability, T/C [13]: 3.47%
viability, T/C [28]: 5.07%
viability, T/C [29]: 5.91%
viability, T/C [14]: 31.3%
viability, T/C [15]: 34.9%
viability, T/C [16]: 36.7%
viability, T/C [17]: 3.39%
viability, T/C [30]: 4.05%
viability, T/C [31]: 5.41%
viability, T/C [18]: 17.2%
viability, T/C [19]: 19.3%
viability, T/C [20]: 19.5%
viability, T/C [21]: 3%
viability, T/C [32]: 3.25%
viability, T/C [33]: 4.47%
viability, T/C [22]: 14.8%
viability, T/C [23]: 16.8%
viability, T/C [24]: 10.1%
viability, T/C [25]: 2.76%
viability, T/C [34]: 3.15%
viability, T/C [35]: 3.94%
